From patent publication US20070053984A1, “Topical gels compositions” (priority 2005, published 2007)
Like-named read-outs stand apart in the source and are kept apart here.

What was measured:
[1] = tested on: skin of minipigs; experiment: C14-labeled compositions applied to skin of minipigs, punch biopsies and serum samples; conditions: 15% in 60% alcohol, 1% ULTREZ 10, 24% water; for Diffusion Rate (1 = high, 5 = low): 0.2 gm per cm^2 skin, biopsies 30 seconds to 24 hours; for Systemic Levels (1 = high, 5 = low): serum samples
[2] = tested on: pseudofolliculitis barbae (PFB); experiment: 10-week double blind, placebo-controlled, cross-over clinical trial in PFB; assay type: in vivo, human; conditions: 15% in 60% alcohol, 1% ULTREZ 10, 24% water; PFB subjects
Description: PFB efficacy is examined by a 10-week double blind, placebo-controlled, cross-over clinical trial. […] Papules, pustules, and ingrown hairs as defined below are counted and recorded. The primary objectives of this study are: • To determine the efficacy of various NSAID compositions applied at various intervals ranging from every other day to twice per day for five weeks in reducing the signs and symptoms of PFB; and • To determine the safety and tolerability of the various NSAID compositions. Papules, pustules, and ingrown hairs as defined below are counted and recorded. Lesions are counted on the neck, lower left and right cheeks, and jaw line (beard area). The same qualified physician completes the assessment at each visit. Each assessment is performed independent of previous assessments. Subjects have a total of at least 10 (for moderate) of 2 (for mild) follicular papules, pustules, or ingrown hairs at the Baseline Visit to be admitted to the study. Inflammatory and/or nodulocystic lesions, erythema, and hyperpigmentation are assessed according to the following six-point Likert (categorical) scale: • 0 None: […] Rare noninflammatory lesions present (lesions must be resolving and may be hyperpigmented, though not pink/red). Barely perceptible elevation (discernable by touch only). • 2 Mild: Noninflammatory lesions predominate, with few inflammatory papules/pustules. Light red color. Visible but mild elevation. No nodulocystic lesions. • 3 Moderate: Some noninflammatory lesions are present with multiple inflammatory lesions evident. Definite lesion redness and elevation. There may or may not be one small nodulocystic lesion. • 4 Severe: Highly inflammatory lesions predominate. Deep intense red color. Marked dermal swelling and in duration in widespread areas. There may or may not be a few nodulocystic lesions. • 5 Very Severe: Many nodulocystic lesions. Results are recorded in the source document and on the appropriate CRF. The same qualified physician will complete the assessment at each visit. Each assessment should be performed independent of previous assessments. Subjects must have a rating of at least moderate (3) at the Baseline Visit to be admitted to the study. All subjects are asked to evaluate specific PFB symptoms of itch, pain, and shaving discomfort, as well as the overall condition of their PFB at the Baseline, and weekly thereafter (“Subject's Assessment of Symptoms”). […] Global Assessment of Improvement. Subjects are asked to compare the overall condition of their PFB at the week 2, 4, and 6 visits with the overall condition before treatment using the following five-point Likert (categorical) scale: • 2 Overall condition and shaving comfort much better than before treatment. • 1 Overall condition and shaving comfort slightly better than before treatment. • 0 Overall condition and shaving comfort unchanged, same as before treatment. • −1 Overall condition and shaving comfort slightly worse than before treatment. • […] than before treatment. Each assessment is performed independent of previous assessments. The prodrug compositions are tested on PFB subjects according to Example 22 including pharmacokinetic analysis.

[3] = tested on: skin of minipigs; conditions: minipig, in vivo
[4] = Prodrug (ibuprofen ethyl ester) generation upon storage, HPLC; assay type: physicochemical; conditions: compositions similar to 1a, presence or absence of salicylic acid
Experimental: It has been discovered that, in one embodiment, compositions of the present invention, upon storage, result in the generation of a prodrug form of the active ingredient. Such prodrug formation results from reaction of a carboxylic acid group of the active drug with the alcoholic solvent to form an ester linkage.
HPLC analysis was performed on composition la stored for 3 months at 25° C. A new peak (i.e., the prodrug) distinct from the ibuprofen peak was detected within the chromatographic profile.
Next, two grams of composition 1a were diluted in twenty-five milliliters of 50:50) water:acetonitrile. The solution was centrifuged and the supernatant collected or analysis.
Chromatography was conducted as follows: • Pumps: Hewlett Packard Model 1100 Binary Systems • Solvent A: Water • Solvent B: Acetonitrile • Gradient: Start 40% B • Raise to 60% B at 20 minutes • Raise to 90% B at 40 minutes • Flow Rate: 1.0 ml/min • Stationary Phase ZORBAX® CS (4.6×150 mm) • Column Temperature: 25 C • Injection volume […]
Sequential detection was performed by UV absorbance using an HP diode array detector followed by ESI-MS […] a Sciex QSTAR®/Pulsar quadrupole-TOF mass spectrometer operating in either the positive and negative ion modes.

For `CC(C)Cc1ccc(C(C)C(=O)OC(C)C)cc1` (stereo not drawn) [ibuprofen isopropyl ester], the “Diffusion Rate (1 = high, 5 = low)” value [1] was 1, the “Systemic Levels (1 = high, 5 = low)” value [1] was 5 and the “Efficacy (1 = high, 5 = low)” value [2] was 1.

With `CCOC(=O)C(C)c1cccc(C(=O)c2ccccc2)c1` (stereo not drawn) [ketoprofen ethylester] the “Efficacy (1 = high, 5 = low)” value [2] was 3, the “Diffusion Rate (1 = high, 5 = low)” value [3] was 3 and the “Systemic Levels (1 = high, 5 = low)” value [3] was 3.

In the case of `CC(C)OC(=O)C(C)c1cccc(C(=O)c2ccccc2)c1` (stereo not drawn) [ketoprofen isopropyl ester], the “Diffusion Rate (1 = high, 5 = low)” value [1] is reported as 3, the “Systemic Levels (1 = high, 5 = low)” value [1] is reported as 3 and the “Efficacy (1 = high, 5 = low)” value [2] is reported as 3.

In the case of `CC(C(=O)O)c1cccc(C(=O)c2ccccc2)c1` (stereo not drawn) [ketoprofen, reference compound], the “Systemic Levels (1 = high, 5 = low)” value [1] is reported as 2 and the “Efficacy (1 = high, 5 = low)” value [2] is reported as 5.

For `O=C(O)c1ccccc1O` [salicylic acid], the “effect on rate of prodrug formation” value [4] was “increases the rate of prodrug formation”.

With “ethylisobutylphenyl-propionate [ibuprofen ethylester]” the “Diffusion Rate (1 = high, 5 = low)” value [1] was 2, the “Systemic Levels (1 = high, 5 = low)” value [1] was 4 and the “Efficacy (1 = high, 5 = low)” value [2] was 2.
